Entries after “also recorded” stand apart in the source; their conditions may differ.
How the values were obtained:
Assay type in all cases: cell-based
human duodenal enteroids [1] = test: Immunofluorescence staining of lineage markers CK20, MUC2, LYZ in enteroids
Experimental: (§1) Immunofluorescence staining was performed as previously described with minor modifications (Dekkers J F, Alieva M, Wellens L M, et al. Nat Protoc 2019; 14:1l756-1771)^32. Organoids were grown in and isolated from Matrigel® as noted above. 1-3 wells from a 24-well plate were washed in 200 μL of 1× phosphate-buffered saline (PBS) and moved in suspension to a 1.5 mL microcentrifuge tube. Each tube was centrifuged at 800×g for 5 minutes at 4° C. to pellet organoids. PBS was aspirated, and organoids were fixed in 200 μL of 4% paraformaldehyde (PFA) for 20 minutes on ice, shaking. Each tube was centrifuged again as above, and PFA was aspirated. The organoids were then resuspended in 500 μL of 0.3% Triton-X in PBS and moved to a 48-well plate for the remaining steps. The organoids were permeabilized for 30 minutes at room temperature, shaking. Between each step, organoids were allowed to settle to the bottom of each well, the plate was angled, and the solution aspirated by careful pipetting. Organoids were then blocked with 5% bovine serum albumin in PBS for 1.5 hours at room temperature, shaking. This was followed by three five-minute washes in 500 μL of PBS at room temperature, shaking.
(§2) Each well was then incubated in 200 μL of primary antibodies diluted in 5% BSA/0.1% Trition-X in PBS at 4° C. overnight. This was followed by five washes in 500 μL of 0.1% Triton-X in PBS for 15 minutes each at room temperature, shaking. 200 μL of secondary antibodies, including Alexa Fluor 488- or 647-conjugated anti-mouse (Invitrogen, A-21202, or A-31571, 1:400), Alexa Fluor 488-conjugated anti-rat (Invitrogen, A-21208, 1:400), Alexa Fluor 488-conjugated anti-goat (Invitrogen, A-11055, 1:400) or Alexa Fluor 647-conjugated anti-rabbit (Invitrogen, A-31573, 1:400), diluted in 0.1% Triton-X in PBS, which were then added to each well and incubated for two hours at room temperature, shaking. Organoids were then washed as above, then moved to new 1.5 mL centrifuge tubes. […]

human duodenal enteroids [2] = test: Immunofluorescence staining of hormones (SST, 5HT, GIP, CCK) in enteroids; conditions: 14-day protocol
Experimental: as §1
as §2, with “tubes. During the last wash, 4′,6-diamidino-2-phenylindole (DAPI, Life Technologies, D1306) was added at a concentration of 1:1000 for nuclear staining. Organoids were then centrifuged at 1000×g for 5 minutes at 4° C. to assist in removal of as much PBS as possible. Slides were prepared by drawing three circles with a hydrophobic pen (Vector Laboratories, H-4000). Enteroids were then resuspended in 20 μL of Prolong Gold Antifade mountant (Life Technologies, P36930), and droplets placed within hydrophobic circles.” for “tubes.”
This technique was adapted from a previously described method (Borten M A, Bajikar S S, Sasaki N, et al. Sci Rep 2018; 8:5319)^69. […] Any remaining clumped enteroids were manually separated prior to quantification. […]

human duodenal enteroids [3] = test: Hormone ELISA (5HT, GIP) of enteroid conditioned media; conditions: last two days of differentiation
Experimental: Hormone quantification for GIP (MilliporeSigma, […]), GLP-1, PYY, and serotonin (Eagle Biosciences/DLD Diagnostika GmbH, SER39-KO1) and were performed using kits and following manufacturer's protocols. For these experiments, organoids were grown in 48-well plates to aid in concentrating the hormone of interest. Conditioned media was taken on day 14 of differentiation. For GIP quantification, Diprotin A (Tocris, 6019, 100 μM), a dipeptidyl peptidase 4 inhibitor, was added daily to the media for the last two days of differentiation to prevent GIP and GLP-1 degradation. For hormone induction studies, forskolin (Fsk) (10 μM) was added to fresh media 24-hours prior to conditioned media being taken. As an additional control, differentiation media not exposed to cells was also evaluated. This value was then subtracted from each experimental sample.

CCn1cc(C(=O)O)c(=O)c2c(N)c(F)c(NC3CCCCC3)cc21 [AS, AS1842856]
lysozyme (LYZ) immunofluorescence staining (human duodenal enteroids [1]): expressed
mucin 2 (MUC2) immunofluorescence staining (human duodenal enteroids [1]): lesser degree
cytokeratin 20 (CK20) immunofluorescence staining (human duodenal enteroids [1]; enterocyte marker): lesser degrees
percentage of CCK-positive enteroids (human duodenal enteroids [2]): 4.5%
percentage of GIP-positive enteroids (human duodenal enteroids [2]): 53%
percentage of enteroids containing SST-positive cells (human duodenal enteroids [2]): 42%
percentage of enteroids with positive 5HT staining (human duodenal enteroids [2]): 75%
5HT secretion (ELISA of conditioned media) (human duodenal enteroids [3]): promoted serotonin (5HT) production and secretion; also recorded: higher levels of 5HT secretion than all other conditions
GIP secretion (ELISA of conditioned media) (human duodenal enteroids [3]): no secretion of GIP
